Where two headings read alike, the source gives them in different places.
Key:
[1] = system: Panc-1 cells (human pancreatic carcinoma cell line); settings: previously determined (Weisz et al., Oncogene 1999), read-out: IC50 of growth inhibition; cited from earlier work
[2] = system: U87 cells (human glioblastoma cell line); settings: U-87 cells; previously determined (Blum et al., Cancer Research 2005); read-out: IC50 of growth inhibition; cited from earlier work
[3] = system: Panc-1 cells (human pancreatic carcinoma cell line); assay: Inhibition of Panc-1 cell growth (cell counting); assay type: cell-based
Description: (§1) Human pancreatic cancer Panc-1 cells were obtained from American Tissue Culture Collection (ATCC) and grown in Dulbecco's modified Eagle medium (DMDM) containing 10% fetal calf serum, 2 mM L-glutamine, 100 U/mL penicillin, and 100 μg/mL streptomycin. The cells were incubated at 37° C. in a humidified atmosphere of 95% air and 5% CO2. Cells were plated in 24-well plates at a density of 5000 cells per well and grown for 24 hours. The medium was then replaced by a medium containing the desired concentration of methoxymethyl S-farnesylthiosalicylic acid and 0.1% DMSO, or by a medium containing 0.1% DMSO (control). Cells were maintained in culture for 5-7 days and then counted. Data are expressed as a percentage: (number cells in drug-treated culture/number cells in control culture×100). Experiments were performed twice in quadruplicates and means±SD are represented graphically in FIG. 1.
(§2) To establish efficacy of the newly synthesized compound FTS-MOME, Applicants prepared cell growth assays using human cancer cell lines. […]
First, to examine the effects of FTS-MOME on panc-1 cell growth (i.e., growth inhibition), the cells were incubated with and without FTS-MOME for five (5) days and the live cells were counted as a percentage of control over concentration of FTS-MOME (μM). […]

[4] = system: U87 cells (human glioblastoma cell line); assay: Inhibition of U87 cell growth (cell counting); assay type: cell-based; settings: U-87 cells
Description: as §1, with “glioblastoma U87” for “pancreatic cancer Panc-1”, “drug treated” for “drug-treated”, “control×100). Experiment was” for “control culture×100). Experiments were”, “2.” for “1.”
as §2
Next, to examine the effects of FTS-MOME on U-87 cell growth (i.e., growth inhibition), the cells were incubated with and without FTS-MOME for five (5) days and the live cells were counted as a percentage of control over concentration of FTS-MOME (μM). […]

[5] = concentration range of 6-100 μM, five days

Row | Compound | IC50 [1] [µM] | IC50 [2] [µM] | IC50 ([3]; Homo sapiens, 120 h, incubated five days, live cells counted as percentage of control, read-out: IC50 (concentration causing 50% inhibition of cell growth)) [µM] | live cancer cell number [3, 5] | IC50 ([4]; Homo sapiens, U-87 MG, 120 h, incubated five days, live cells counted as percentage of control, read-out: IC50 (concentration causing 50% inhibition of cell growth)) [µM] | live cancer cell number [4, 5]
1 | CC(C)=CCC/C(C)=C/CC/C(C)=C/CSc1ccccc1C(=O)O [FTS, S-trans, trans-farnesylthiosalicylic acid] | 35 | 50 | – | – | – | –
2 | COCOC(=O)c1ccccc1SC/C=C(\C)CC/C=C(\C)CCC=C(C)C [FTS-MOME, methoxymethyl S-farnesylthiosalicylate] | – | – | 15 | dose-dependent decrease | 15 | dose-dependent decrease

Reference: patent publication US8338481B2, “Alkoxyalkyl S-prenylthiosalicylates for treatment of cancer” (Ramot at Tel-Aviv University Ltd., priority 2009, dated 2012)
